# Test: Phase 1/1b clinical trial: safety (DLTs, treatment-emergent adverse events)
# Assay type: in vivo, human
# Experimental: As used herein, “dose limiting toxicity” (DLT) refers to the dosage of PF-07220060 that is contraindicative of a further increase in dosage.
# An ongoing open-label, nonrandomized, dose-finding Phase 1/1b Study investigating the safety, tolerability, PK, and PD of PF-07220060 administered as a single agent and when administered in combination with endocrine therapy.
# Adverse events of the patients dosed with PF-07220060 in the Phase 1/1b clinical trial were evaluated using the National Cancer Institute Common Terminology Criteria for Adverse Events (NCI CTCAE) version 4.03.
# [1] = Part 1D, single agent 400 mg BID food cohort
# [2] = Part 1D, single agent 400 mg BID food cohort, 6 participants
# [3] = across all dose levels, by label
# [4] = across all dose levels, Part 1A
# [5] = any grade, all dose levels, Part 1A, 1B, 1C, by label
# [6] = any grade, all dose levels, Part 1A, 1C, by label
# [7] = overall, 66 participants dosed in Part 1
smiles,measurement,setting,value
"CC(C)n1c(C(C)(C)O)nc2c(F)cc(-c3nc(N[C@@H]4CCOC[C@H]4O)ncc3Cl)cc21 [PF-07220060, 1,5-anhydro-3-({5-chloro-4-[4-fluoro-2-(2-hydroxypropan-2-yl)-1-(propan-2-yl)-1H-benzimidazol-6-yl]pyrimidin-2-yl}amino)-2,3-dideoxy-D-threo-pentitol]","neutropenia, Grade 3 treatment-related TEAE","Part 1A, 1B, 1C, by label",14.7%
same,"participants with Grade 3 treatment-related TEAEs, %","Part 1A, 1B, 1C, by label",26.5%
same,"Grade 3, 4 or 5 treatment-related TEAEs",[1],"No Grade 3, 4 nor 5 treatment-related TEAEs were reported"
same,Grade 3 or 5 TEAEs,[1],No Grade 3 or 5 TEAEs were reported
same,"diarrhoea, all-causality TEAE",[1],50.0%
same,"diarrhoea, treatment-related TEAE",[1],50.0%
same,"leukopenia, all-causality TEAE",[1],50.0%
same,"leukopenia, treatment-related TEAE",[1],50.0%
same,"neutropenia, all-causality TEAE",[1],50.0%
same,"neutropenia, treatment-related TEAE",[1],50.0%
same,participants with Grade 4 all-causality TEAE (respiratory failure),[1],One
same,"participants with TEAEs, %",[2],66.7%
same,"participants with treatment-related TEAEs, %",[2],66.7%
same,"anaemia, Grade 3 or higher (1A) / Grade 3 (1B, 1C) all-causality TEAE",[3],5.9%
same,"leukopenia, Grade 3 or higher (1A) / Grade 3 (1B, 1C) all-causality TEAE",[3],5.9%
same,"neutropenia, Grade 3 or higher (1A) / Grade 3 (1B, 1C) all-causality TEAE",[3],14.7%
same,number of Grade 3 or higher (Part 1A) / Grade 3 (Part 1C) all-causality TEAEs,[3],15
same,"COVID-19, Grade 3 or higher all-causality TEAE",[4],5.9%
same,"aspartate aminotransferase increased, Grade 3 or higher all-causality TEAE",[4],5.9%
same,"diarrhoea, Grade 3 or higher all-causality TEAE",[4],5.9%
same,"syncope, Grade 3 or higher all-causality TEAE",[4],5.9%
same,"thrombocytopenia, Grade 3 or higher all-causality TEAE",[4],5.9%
same,"participants with all-causality TEAEs, %","all dose levels, Part 1A (single agent, 34), 1B (13), 1C (13), by label",94.1%
same,"aspartate aminotransferase increased, all-causality TEAE","any grade, all dose levels, Part 1A",20.6%
same,"anaemia, all-causality TEAE",[5],35.3%
same,"diarrhoea, all-causality TEAE",[5],35.3%
same,"diarrhoea, treatment-related TEAE",[5],23.5%
same,"fatigue, treatment-related TEAE",[5],11.8%
same,"leukopenia, all-causality TEAE",[5],35.3%
same,"nausea, all-causality TEAE",[5],29.4%
same,"nausea, treatment-related TEAE",[5],26.5%
same,"neutropenia, all-causality TEAE",[5],41.2%
same,"neutropenia, treatment-related TEAE",[5],41.2%
same,"vomiting, all-causality TEAE",[5],20.6%
same,"anaemia, treatment-related TEAE",[6],29.4%
same,"leukopenia, treatment-related TEAE",[6],29.4%
same,"thrombocytopenia, treatment-related TEAE",[6],20.6%
same,"vomiting, treatment-related TEAE",[6],14.7%
same,"participants who experienced DLTs, %","of the 55 evaluable participants, all cohorts, as of Sep. 2, 2022",7.3%
same,"anemia, treatment-related TEAE",[7],21.2%
same,"diarrhea, treatment-related TEAE",[7],33.3%
same,"leukopenia, treatment-related TEAE",[7],30.3%
same,"nausea, treatment-related TEAE",[7],27.3%
same,"neutropenia, treatment-related TEAE",[7],40.9%
same,participants with DLT of Grade 3 neutropenia,single agent 200 mg BID cohort,One
same,participants with DLT of Grade 3 thrombocytopenia,single agent 500 mg BID cohort,Two

# Reference: patent US20250041298A1, “CDK4 INHIBITOR FOR THE TREATMENT OF CANCER” (Pfizer Inc., priority 2021, published 2025)
